Measurements reported in patent US9249134B2, “Process for preparation of amorphous form of dasatinib” (CADILA HEALTHCARE LIMITED, priority 2013, dated 2016).

Columns and labels:
[1] = in water or organic solvents like methanol, ethanol, propanol, isopropanol, butanol; even in the condition of heating; cited from earlier work
[2] = Solid-state stability of prior-art amorphous dasatinib under stability conditions; type: physicochemical; details: amorphous dasatinib having higher residual solvents (prior art process), subjected to stability conditions
Procedure: Therefore, the prior art process provides amorphous dasatinib containing higher amount of residual solvent which is not suitable for pharmaceutical developments.
As used herein, the term “stable dasatinib” includes either: amorphous dasatinib that after exposure to a relative humidity of 75% at 40° C. or 60% at 25° C., for a period of at least three months contains less than about 0.5% (wt/wt) total impurities and doesn't change to crystalline form.

SMILES	solubility [1]	solid form stability (amorphous to crystalline conversion) [2]
Cc1nc(Nc2ncc(C(=O)Nc3c(C)cccc3Cl)s2)cc(N2CCN(CCO)CC2)n1 [Dasatinib, N-(2-chloro-6-methylphenyl)-2-[[6-[4-(2-hydroxyethyl)-1-piperazinyl]-2-methyl-4-pyrimidinyl]amino]-5-thiazolecarboxamide]	practically insoluble	
Cc1nc(Nc2ncc(C(=O)Nc3c(C)cccc3Cl)s2)cc(N2CCN(CCO)CC2)n1 [amorphous dasatinib]		converts to crystalline form
